# Measurements as given in paper PMC4001115 (International journal of toxicology, 2014).
# Experiments:
# [1] = mice, 100 mg/kg po, cited from earlier work
# CD-1 mice = assay: Microscopic findings; assay type: in vivo; details: THU/DAC 167/0.0 mg/kg; for Cytoplasmic Alteration, MK (Minimal): bone marrow
# monkey = details: single intravenous injections up to 1 g/kg; cited from earlier work
# beagle dog = details: single intravenous injections up to 1 g/kg; cited from earlier work
# [2] = system: bone marrow polychromatic erythrocytes (PCEs); assay: Bone marrow micronucleus analysis; assay type: in vivo, CD-1 mice; details: DAC 1.0 mg/kg; for Number of MPCE/1000 PCE (Mean +/− SD): single animal
# [3] = Toxicokinetics: plasma DAC by LC-MS/MS after oral gavage; assay type: in vivo, CD-1 mice; details: for Cmax / AUC: plasma, po; for AUC: AUCfit
# [4] = male, CD-1, mouse, 0.2 mg/kg, males, THU/DAC 167/0.2 mg/kg, Day 1
# [5] = male, CD-1, mouse, 0.2 mg/kg, males, THU/DAC 167/0.2 mg/kg, Day 58
# [6] = male, CD-1, mouse, 0.4 mg/kg, males, THU/DAC 167/0.4 mg/kg, Day 1
# [7] = male, CD-1, mouse, 0.4 mg/kg, males, THU/DAC 167/0.4 mg/kg, Day 58
# [8] = male, CD-1, mouse, 1 mg/kg, males, THU/DAC 0/1.0 mg/kg, Day 1
# [9] = male, CD-1, mouse, 1 mg/kg, males, THU/DAC 0/1.0 mg/kg, Day 58
# [10] = male, CD-1, mouse, 1 mg/kg, males, THU/DAC 167/1.0 mg/kg, Day 1
# [11] = male, CD-1, mouse, 1 mg/kg, males, THU/DAC 167/1.0 mg/kg, Day 58
structure (smiles),measurement,setting,value
"O=C1NC(O)CCN1[C@@H]1O[C@H](CO)[C@@H](O)[C@H]1O (stereo partly drawn) [THU, tetrahydrouridine]",half life,[1],1.42 h
same,oral bioavailability,[1],20%
same,sustained plasma concentrations that inhibit CDA,[1]; for several hours,> 1 µg/mL
same,"Cytoplasmic Alteration, MK (Minimal)","CD-1 mice; females, Day 59",0/10
same,"Cytoplasmic Alteration, MK (Minimal)","CD-1 mice; males, Day 59",0/10
same,"Bone Marrow Cytoplasmic Alteration, MK, Minimal","CD-1 mice; females, Day 31",0/6
same,"Bone Marrow Hypocellularity, Marked","CD-1 mice; females, Day 31",0/6
same,"Bone Marrow Hypocellularity, Moderate","CD-1 mice; females, Day 31",0/6
same,"Duodenum Apoptosis, Minimal-Mild","CD-1 mice; females, Day 31",0/6
same,"Ileum Apoptosis, Minimal-Mild","CD-1 mice; females, Day 31",0/6
same,"Jejunum Apoptosis, Minimal-Mild","CD-1 mice; females, Day 31",0/6
same,"Spleen Proliferation, MK, Red Pulp, Minimal-Mild","CD-1 mice; females, Day 31",0/6
same,"Thymus Depletion, Lymphoid Cortex, Marked","CD-1 mice; females, Day 31",0/5
same,"Thymus Depletion, Lymphoid Cortex, Mild-Moderate","CD-1 mice; females, Day 31",0/5
same,"Uterus Atrophy, Mild","CD-1 mice; females, Day 31",0/6
same,"Bone Marrow Hypocellularity, Marked","CD-1 mice; females, Day 59",0/10
same,"Bone Marrow Hypocellularity, Moderate","CD-1 mice; females, Day 59",0/10
same,"Duodenum Apoptosis, Minimal-Mild","CD-1 mice; females, Day 59",0/10
same,"Ileum Apoptosis, Minimal-Mild","CD-1 mice; females, Day 59",0/10
same,"Jejunum Apoptosis, Minimal-Mild","CD-1 mice; females, Day 59",0/10
same,"Spleen Proliferation, MK, Red Pulp, Minimal-Mild","CD-1 mice; females, Day 59",0/10
same,"Uterus Atrophy, Mild","CD-1 mice; females, Day 59",0/10
same,"Bone Marrow Cytoplasmic Alteration, MK, Minimal","CD-1 mice; males, Day 31",0/6
same,"Bone Marrow Hypocellularity, Marked","CD-1 mice; males, Day 31",0/6
same,"Bone Marrow Hypocellularity, Moderate","CD-1 mice; males, Day 31",0/6
same,"Duodenum Apoptosis, Minimal-Mild","CD-1 mice; males, Day 31",0/6
same,"Epididymides Hypospermia, Head, Marked","CD-1 mice; males, Day 31",0/6
same,"Epididymides Hypospermia, Head, Minimal-moderate","CD-1 mice; males, Day 31",0/6
same,"Epididymides Hypospermia, Tail, Mild-moderate","CD-1 mice; males, Day 31",0/6
same,"Ileum Apoptosis, Minimal-Mild","CD-1 mice; males, Day 31",0/6
same,"Jejunum Apoptosis, Minimal-Mild","CD-1 mice; males, Day 31",0/6
same,"Spleen Proliferation, MK, Red Pulp, Minimal-Mild","CD-1 mice; males, Day 31",0/6
same,"Testis Degeneration, Seminiferous Tubules, Marked","CD-1 mice; males, Day 31",0/6
same,"Testis Degeneration, Seminiferous Tubules, Minimal-mild","CD-1 mice; males, Day 31",0/6
same,"Testis Degeneration, Seminiferous Tubules, Moderate","CD-1 mice; males, Day 31",0/6
same,"Thymus Depletion, Lymphoid Cortex, Marked","CD-1 mice; males, Day 31",0/6
same,"Thymus Depletion, Lymphoid Cortex, Mild-Moderate","CD-1 mice; males, Day 31",0/6
same,"Bone Marrow Hypocellularity, Marked","CD-1 mice; males, Day 59",0/10
same,"Bone Marrow Hypocellularity, Moderate","CD-1 mice; males, Day 59",0/10
same,"Duodenum Apoptosis, Minimal-Mild","CD-1 mice; males, Day 59",0/10
same,"Epididymides Hypospermia, Head, Marked","CD-1 mice; males, Day 59",0/10
same,"Epididymides Hypospermia, Head, Moderate","CD-1 mice; males, Day 59",0/10
same,"Epididymides Hypospermia, Tail, Mild-moderate","CD-1 mice; males, Day 59",0/10
same,"Ileum Apoptosis, Minimal-Mild","CD-1 mice; males, Day 59",0/10
same,"Jejunum Apoptosis, Minimal-Mild","CD-1 mice; males, Day 59",0/10
same,"Spleen Proliferation, MK, Red Pulp, Minimal-Mild","CD-1 mice; males, Day 59",0/10
same,"Testis Degeneration, Seminiferous Tubules, Marked","CD-1 mice; males, Day 59",0/10
same,"Testis Degeneration, Seminiferous Tubules, Mild-moderate","CD-1 mice; males, Day 59",0/10
same,"Testis Degeneration, Seminiferous Tubules, Severe","CD-1 mice; males, Day 59",0/10
same,"Thymus Depletion, Lymphoid Cortex, Marked","CD-1 mice; males, Day 59",0/10
same,"Thymus Depletion, Lymphoid Cortex, Mild-Moderate","CD-1 mice; males, Day 59",0/10
same,toxic effects,monkey,no notable toxic effects
same,toxic effects,beagle dog,no notable toxic effects
"Nc1ncn([C@H]2C[C@H](O)[C@@H](CO)O2)c(=O)n1 [DAC, 5-aza-2’-deoxycytidine]",Number of MPCE/PCE Scored,[2]; F,^*73 / 2000
same,PCE/Total Erythrocytes (Mean+/−SD),[2]; F,0.168±0.05
same,"PCE/Total Erythrocytes, Change from Control",[2]; F,−65%
same,Number of MPCE/1000 PCE (Mean +/− SD),[2]; F,36.5 ± ^1SD
same,Number of MPCE/PCE Scored,[2]; M,^*41 / 2000
same,PCE/Total Erythrocytes (Mean+/−SD),[2]; M,0.127±0.06
same,"PCE/Total Erythrocytes, Change from Control",[2]; M,−73%
same,Number of MPCE/1000 PCE (Mean +/− SD),[2]; M,20.5 ± ^1SD
same,DAC detectable in plasma through (post dose),"[3]; both, CD-1, mouse, in vivo",180 min
same,"DAC exposure, female mice compared to males","[3]; both, CD-1, mouse, in vivo",~ 2 fold
same,Cmax,"[3]; female, CD-1, mouse, 0.2 mg/kg, females, THU/DAC 167/0.2 mg/kg, Day 1",1900 nM
same,Cmax,"[3]; female, CD-1, mouse, 0.2 mg/kg, females, THU/DAC 167/0.2 mg/kg, Day 58",960 nM
same,Cmax,"[3]; female, CD-1, mouse, 0.4 mg/kg, females, THU/DAC 167/0.4 mg/kg, Day 1",2780 nM
same,Cmax,"[3]; female, CD-1, mouse, 0.4 mg/kg, females, THU/DAC 167/0.4 mg/kg, Day 58",1650 nM
same,Cmax,"[3]; female, CD-1, mouse, 1 mg/kg, females, THU/DAC 0/1.0 mg/kg, Day 1",2050 nM
same,Cmax,"[3]; female, CD-1, mouse, 1 mg/kg, females, THU/DAC 0/1.0 mg/kg, Day 58",1230 nM
same,DAC detectable in plasma through (post dose),"[3]; male, CD-1, mouse, in vivo",120 min
same,AUC,[3]; [4],1.57 µM·h
same,AUC,[3]; [5],1.25 µM·h
same,Cmax,[3]; [4],1180 nM
same,Cmax,[3]; [5],700 nM
same,AUC,[3]; [6],3.08 µM·h
same,AUC,[3]; [7],2.11 µM·h
same,Cmax,[3]; [6],2620 nM
same,Cmax,[3]; [7],980 nM
same,AUC,[3]; [8],0.864 µM·h
same,AUC,[3]; [9],0.976 µM·h
same,AUC,[3]; [10],7.65 µM·h
same,AUC,[3]; [11],5.87 µM·h
same,Cmax,[3]; [8],1750 nM
same,Cmax,[3]; [9],1200 nM
same,Cmax,[3]; [10],5810 nM
same,Cmax,[3]; [11],4740 nM
same,time of plasma DAC Cmax,[3]; oral DAC with or without THU,≤ 1 h
